Patent US8288375B2, “Fungicidal bicyclic pyrazoles” (E.I. du Pont de Nemours and Company, priority 2007, dated 2012)
Marks after values point to notes of the source that are not given here.

How the values were obtained:
Format in all cases: in vivo
[1] = tested on: Erysiphe graminis f. sp. tritici; test: Test A: wheat powdery mildew, test suspension sprayed on wheat seedlings, disease rating; settings: for pest or weed control at 200 ppm: Blumeria graminis, 192 h
[2] = tested on: Septoria nodorum; test: Test D: wheat glume blotch, test suspension sprayed on wheat seedlings, disease rating; settings: for pest or weed control at 200 ppm: Parastagonospora nodorum, 216 h
[3] = tested on: Septoria tritici; test: Test E: wheat leaf blotch, test suspension sprayed on wheat seedlings, disease rating; settings: 200 ppm test suspension; for pest or weed control at 200 ppm: Zymoseptoria tritici, 504 h;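 as to all read-outs here: 200 ppm unless marked * meaning 40 ppm or ** meaning 10 ppm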
[4] = tested on: Phytophthora infestans; test: whole plant or invertebrate; settings: for pest or weed control at 200 ppm: Phytophthora infestans, in Solanum lycopersicum, 120 h, read-out: Test J disease control rating
[5] = tested on: Pythium aphanidermatum; test: Test L: bluegrass pythium blight, test suspension sprayed on bluegrass seedlings, disease rating; settings: for pest or weed control at 200 ppm: Pythium aphanidermatum, 120 h;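 as to all read-outs here: 200 ppm unless marked * meaning 40 ppm or ** meaning 10 ppm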
[6] = tested on: Puccinia recondite f sp. tritici; test: Test B: wheat leaf rust, test suspension sprayed on wheat seedlings, disease rating; settings: for pest or weed control at 200 ppm: Puccinia, 192 h;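 as to all read-outs here: 200 ppm unless marked * meaning 40 ppm or ** meaning 10 ppm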
[7] = tested on: Fusarium graminearum; test: whole plant or invertebrate; settings: for pest or weed control at 200 ppm: Fusarium graminearum, in Triticum aestivum, 192 h, read-out: Test C disease control rating
[8] = 200 ppm test suspension, 100 = 100% disease control, 0 = no control

| Structure (SMILES) | Test A disease control rating ([1]; 40 ppm test suspension (*)) | Test B disease control rating ([6]; 40 ppm test suspension (*)) | Test C disease control rating ([7]; 40 ppm test suspension (*)) | Test D disease control rating ([2]; 40 ppm test suspension (*)) | Test J disease control rating ([4]; 40 ppm test suspension (*)) | Test L disease control rating ([5]; 40 ppm test suspension (*)) | Test A disease control rating [1, 8] [%] | Test D disease control rating ([2]; 200 ppm test suspension) [%] | Test E disease control rating [3] [%] | Test J disease control rating ([4]; 200 ppm test suspension) [%] | Test L disease control rating ([5]; 200 ppm test suspension) [%] | also measured |
| --- | --- | --- | --- | --- | --- | --- | --- | --- | --- | --- | --- | --- |
| CC(C)Nc1nccc(-c2c(-c3ccccc3)nn3c2CCCC3)n1 [Compound 26, N-(1-methylethyl)-4-(4,5,6,7-tetrahydro-2-phenylpyrazolo[1,5-a]pyridin-3-yl)-2-pyrimidinamine] |  |  |  |  |  |  |  |  |  |  |  | pest or weed control at 200 ppm [1, 8]: 91%; pest or weed control at 200 ppm ([2]; 200 ppm test suspension): 99%; pest or weed control at 200 ppm [3]: 96%; pest or weed control at 200 ppm [4]: 91%; pest or weed control at 200 ppm ([5]; 200 ppm test suspension): 100% |
| CC(=O)Nc1nccc(-c2c(-c3ccc(F)cc3)nn3c2CCCC3)n1 [Compound 52, N-[4-[2-(4-fluorophenyl)-4,5,6,7-tetrahydropyrazolo[1,5-a]pyridin-3-yl]-2-pyrimidinyl]acetamide] |  |  |  |  |  |  |  |  |  |  |  | pest or weed control at 200 ppm [1, 8]: 0%; pest or weed control at 200 ppm ([6]; 200 ppm test suspension): 100%; pest or weed control at 200 ppm [7]: 99%; pest or weed control at 200 ppm ([2]; 200 ppm test suspension): 97%; pest or weed control at 200 ppm [3]: 98%; pest or weed control at 200 ppm [4]: 95%; pest or weed control at 200 ppm ([5]; 200 ppm test suspension): 100% |
| C[C@@H](CO)Nc1nccc(-c2c(-c3ccccc3)nn3c2CCCC3)n1 [Compound 54, (2S)-2-[[4-(4,5,6,7-tetrahydro-2-phenylpyrazolo[1,5-c]pyridine-3-yl)-2-pyrimidinyl]amino]-1-propanol] | 0* % | 98* % | 95* % | 60* % | 99* % | 100* % |  |  |  |  |  |  |
| COCC(C)Nc1nccc(-c2c(-c3ccc(F)cc3F)nn3c2CSC3)n1 (stereo not drawn) [Compound 83, 4-[2-(2,4-difluorophenyl)-4H,6H-pyrazolo[1,5-c]thiazol-3-yl]-N-(2-methoxy-1-methylethyl)-2-pyrimidinamine] |  |  |  |  |  |  |  |  |  |  |  | pest or weed control at 200 ppm [1, 8]: 0%; pest or weed control at 200 ppm ([6]; 200 ppm test suspension): 0%; pest or weed control at 200 ppm [7]: 0%; pest or weed control at 200 ppm ([2]; 200 ppm test suspension): 60%; pest or weed control at 200 ppm [3]: 67%; pest or weed control at 200 ppm [4]: 93%; pest or weed control at 200 ppm ([5]; 200 ppm test suspension): 99% |
| COc1nccc(-c2c(-c3ccc(F)cc3)nn3c2CCCC3)n1 [Compound 105] |  |  |  |  |  |  | 0 | 78 | 100 | 73 | 0 | Test B disease control rating ([6]; 200 ppm test suspension): 94%; Test C disease control rating ([7]; 200 ppm test suspension): 94% |
| Fc1ccc(-c2nn3c(c2-c2ccnc(Oc4ccc(-n5cccc5)cc4)n2)CCCC3)cc1 [Compound 106] |  |  |  |  |  |  | 0 | 69 | 72 | 9 | 0 | Test B disease control rating ([6]; 200 ppm test suspension): 94%; Test C disease control rating ([7]; 200 ppm test suspension): 92% |
| Fc1ccc(-c2nn3c(c2-c2ccnc(NC4CC4)n2)COCC3)cc1 [Compound 109, N-cyclopropyl-4-[2-(4-fluorophenyl)-6,7-dihydro-4H-pyrazolo[5,1-c][1,4]oxazin-3-yl]-2-pyrimidinamine] |  |  |  |  |  |  |  |  |  |  |  | pest or weed control at 200 ppm [1, 8]: 92%; pest or weed control at 200 ppm [7]: 100%; pest or weed control at 200 ppm ([2]; 200 ppm test suspension): 0%; pest or weed control at 200 ppm [3]: 100%; pest or weed control at 200 ppm [4]: 99%; pest or weed control at 200 ppm ([5]; 200 ppm test suspension): 100% |
| CC(C)Nc1nccc(-c2c(-c3ccc(F)cc3)nn3c2CS(=O)(=O)CC3)n1 [Compound 114, 4-[2-(4-fluorophenyl)-6,7-dihydro-5,5-dioxido-4H-pyrazolo[5,1-c][1,4]thiazin-3-yl]-N-(1-methylethyl)-2-pyrimidinamine] |  |  |  |  |  |  |  |  |  |  |  | pest or weed control at 200 ppm [1, 8]: 57%; pest or weed control at 200 ppm ([6]; 200 ppm test suspension): 100%; pest or weed control at 200 ppm [7]: 94%; pest or weed control at 200 ppm ([2]; 200 ppm test suspension): 73%; pest or weed control at 200 ppm [3]: 86%; pest or weed control at 200 ppm [4]: 100%; pest or weed control at 200 ppm ([5]; 200 ppm test suspension): 100% |
| CC(C)Nc1nccc(-c2c(-c3ccc(Cl)cc3)nn3c2CCCC3)n1 [compound 21] |  |  |  |  |  |  | 96 | 82 | 100 | 52 | 76 |  |
| Clc1ccc(-c2nn3c(c2-c2ccnc(NC4CC4)n2)CCCC3)cc1 [compound 22] |  |  |  |  |  |  | 50 | 87 | 94 | 83 | 77 |  |
| CN(C)Nc1nccc(-c2c(-c3ccc(F)cc3)nn3c2CCCC3)n1 [compound 23] |  |  |  |  |  |  | 99 | 94 | 98 | 71 | 0 |  |
| OCCNc1nccc(-c2c(-c3ccc(F)cc3)nn3c2CCCC3)n1 [compound 25] |  |  |  |  |  |  | 96 | 87 | 97 | 83 | 100 |  |
| Fc1ccc(-c2nn3c(c2-c2ccnc(NC4CC4)n2)CCCC3)c(F)c1 [compound 28] |  |  |  |  |  |  | 94 | 92 | 96 | 95 | 98 |  |
| CC(C)CNc1nccc(-c2c(-c3ccc(F)cc3)nn3c2CCCC3)n1 [compound 29] |  |  |  |  |  |  | 0 | 98 | 85 | 47 | 0 | Test B disease control rating ([6]; 200 ppm test suspension): 95%; Test C disease control rating ([7]; 200 ppm test suspension): 100% |
| CC(C)(CO)Nc1nccc(-c2c(-c3ccc(F)cc3)nn3c2CCCC3)n1 [compound 30] |  |  |  |  |  |  | 0 | 69 | 93 | 47 | 0 | Test B disease control rating ([6]; 200 ppm test suspension): 91%; Test C disease control rating ([7]; 200 ppm test suspension): 92% |
| Cc1cc(-c2nn3c(c2-c2ccnc(NC(C)CO)n2)CCCC3)ccc1F (stereo not drawn) [compound 32] | 0* % | 74* % | 0* % | 0* % | 98* % | 99* % |  |  |  |  |  |  |
| Cc1cc(-c2nn3c(c2-c2ccnc(NC(C)C)n2)CCCC3)ccc1F [compound 33] | 0* % | 77* % | 98* % | 94* % | 95* % | 97* % |  |  |  |  |  |  |
| Cc1cc(-c2nn3c(c2-c2ccnc(NC[Si](C)(C)C)n2)CCCC3)ccc1F [compound 50] | 0* % | 0* % | 92* % | 0* % | 31* % | 68* % |  |  |  |  |  |  |
| COCC(C)Nc1nccc(-c2c(-c3ccccc3)nn3c2CCCC3)n1 (stereo not drawn) [compound 53] | 0* % | 98* % | 99* % | 84* % | 99* % | 100* % |  |  |  |  |  |  |
| C[Si](C)(C)CNc1nccc(-c2c(-c3ccccc3)nn3c2CCCC3)n1 [compound 55] | 0* % | 91* % | 99* % | 44* % | 17* % | 0* % |  |  |  |  |  |  |
| Cc1cc(-c2nn3c(c2-c2ccnc(NC4CC4)n2)CCCC3)ccc1F [compound 56] | 86* % | 0* % | 100* % | 99* % | 93* % | 100* % |  |  |  |  |  |  |
| C[C@H](CO)Nc1nccc(-c2c(-c3ccc(F)cc3)nn3c2CCCC3)n1 [compound 57] | 0* % | 86* % | 0* % | 0* % | 99* % | 100* % |  |  |  |  |  |  |
| C#CCNc1nccc(-c2c(-c3ccc(F)cc3)nn3c2CCCC3)n1 [compound 58] | 0* % | 0* % | 100* % | 82* % | 26* % | 62* % |  |  |  |  |  |  |
| C#CCNc1nccc(-c2c(-c3ccccc3)nn3c2CCCC3)n1 [compound 59] | 0* % | 92* % | 99* % | 94* % | 71* % |  |  |  |  |  |  | Test L disease control rating ([5]; 10 ppm test suspension (**)): 67** % |
| COCC(C)Nc1nccc(-c2c(-c3ccc(F)c(C)c3)nn3c2CCCC3)n1 (stereo not drawn) [compound 62] | 78* % | 80* % | 98* % | 60* % | 96* % | 99* % |  |  |  |  |  |  |
| CC(C)N(O)c1nccc(-c2c(-c3ccc(F)cc3)nn3c2CS(=O)(=O)CC3)n1 [compound 115] | 0* % | 63* % | 0* % | 69* % | 73* % |  |  |  |  |  |  |  |
